pEC50: −log10 of the molar value. Where a name gives a salt, the structure may show the parent alone. Read-outs that look alike come from different tables or passages of the source. Each block holds one molecule with its values, some of them ahead of it.
How the values were obtained:
[1] = molecular target: T1, S1PR1 (Homo sapiens, UniProt P21453); assay: In vitro S1PR1 agonistic activity, U2OS-EDG1 cells, LiveBLAzer-FRET B/G (CCF4-AM); assay type: cell-based; conditions: for pEC50: 20 hours incubation; for Emax: % Effect
T1 construct: expressed in transfected cells
Protocol: Test Embodiment 2: In Vitro Evaluation of the Agonistic Activity of the Compounds of the Present Disclosure on S1PR1
(§1) Experimental objective: to detect the agonistic activity of compounds on S1PR1
I. Cell Treatment • 1. The cells U2OS-EDG1 (batch number: Invitrogen-K1520) were taken out from a liquid nitrogen tank and quickly thawed in a 37° C. water bath; • 2. the cell suspension was aspirated into a 15 mL centrifuge tube, resuspended in 5 mL of pre-warmed culture medium, and centrifuged at 1000 rpm for 5 min; • 3. the supernatant was discarded, 10 mL of culture medium was resuspended, transferred to a T75 culture flask, and cultured in a 37° C., 5% CO2 incubator.
II. Agonist Assay • 1. Compounds were diluted to working concentrations, and the compounds were 3-fold diluted by Echo 555 (manufacturer: Labcyte) to 10 concentrations, and then 200 nL of each concentration were transferred to cell plates, and centrifuged at 1000 rpm for 15 seconds; • 2. the culture medium in the culture flask was aspirated, and 4 mL of Dulbecco's Phosphate Buffered Saline (DPBS, supplier: Coring, catalog number: 21-031-CVR, batch number: 03318006) was added thereto to wash off the residual serum, and 2 mL of trypsin was added thereto, and incubated in a 37° C. incubator for 2 minutes to digest the cells, and then 10 mL of seed plate culture medium was added to resuspend the cells, and 0.6 mL of the cell suspension was taken out for counting; • 3. the cell density was adjusted with the seed plate culture medium to 1.88E+05 cells/mL, 40 μL was seeded per well (7500\well), and 40 μL of FreeStyle™ Expression culture medium was added around the cell plate, left to stand for 15 minutes at room temperature, and incubated at 37° C. with 5% CO2 for 20 hours.
III. Signal Detection • 1. LiveBLAzer™-FRET B/G Substrate (CCF4-AM) detection reagent was configured according to the instructions; • 2. 8 μL of 6×Substrate Mixture was added to each well of the cell plate, centrifuged at 1000 rpm for 15 seconds, attached with a membrane, incubated at 23° C. for 2 hours, and detected by Envision […].
IV. Data Analysis • 1. The original data was converted into % Effect by using the equation, and the value of EC50 could be obtained by curve fitting with four parameters [obtained in the “log(agonist) vs. response—Variable slope” mode in GraphPad Prism]; • 2. calculation formula: Ratio=(460 nm−blank)/(535 nm−blank) % Effect=(SampleRatio−Ave LCRatio)/(Ave HCRatio−Ave LCRatio)*100%

[2] = Pharmacokinetic evaluation in SD rats at different oral doses; assay type: in vivo, Sprague Dawley rats; conditions: male, Sprague-Dawley, rat, plasma, po; for AUC(0-t): read-out: Area under the drug-time curve AUC0-last PO; for half-life: read-out: Half-life T1/2 (PO) (converted); for Cmax: read-out: Peak concentration Cmax; for Tmax: read-out: Peak time Tmax
Protocol: Test Embodiment 5: Pharmacokinetic Evaluation of Compounds in Rats at Different Doses
Experimental objective: to test the pharmacokinetics of the compounds in SD rats at different doses
Sprague Dawley rats (male, 200-300 g, 7-9 weeks old, Shanghai SLAC)
A standard protocol was used to test the pharmacokinetic characteristics of the compounds in SD rats after oral administration. In the experiment, the candidate compound was prepared into a clear solution, and administrated to rats by single oral administration. The vehicle for compound 1 was DMSO: 10% hydroxypropyl β-cyclodextrin aqueous solution=5:95. The vehicle for compounds 1A and 1B was 0.5% carboxymethyl cellulose +0.2% Tween 80. Whole blood samples of compounds 1, 1A and 1B within 48 hours were collected, centrifuged at 3000 g for 15 minutes, and the supernatant was separated to obtain plasma samples. 4-fold volume of acetonitrile solution containing internal standard was added thereto to precipitate protein. The mixture was centrifuged, and the supernatant was taken, and an equal volume of water was added thereto. Then the mixture was centrifuged and the supernatant was taken for injection. The blood drug concentration was quantitatively analyzed by LC-MS/MS analysis method, and pharmacokinetic parameters, such as peak concentration, peak time, half-life, area under the drug-time curve, were calculated.

[3] = Pharmacokinetic evaluation in CD-1 mice (intravenous and oral); assay type: in vivo; conditions: male, mouse, plasma; for Cmax / bioavailability: intravenous 0.5 mg/kg; for Cmax: oral 2.0 mg/kg (route of Cmax not stated), read-out: Peak concentration Cmax; for bioavailability: oral 2.0 mg/kg, read-out: Bioavailability F; for clearance / Vd: intravenous injection 0.5 mg/kg (oral 2.0 mg/kg); for clearance: read-out: Clearance rate CL; for Vd: read-out: Tissue distribution Vdss; for AUC(0-t) / half-life: oral administration 2.0 mg/kg; for AUC(0-t): read-out: Area under the drug-time curve AUC0-last PO; for half-life: read-out: Half-life T1/2 (PO) (converted)
Protocol: Test Embodiment 4: Pharmacokinetic Evaluation of Compound in Mice
Experimental objective: to test the pharmacokinetics of the compound in CD-1 mice
CD-1 mice (male, 20-40 g, 6-10 weeks old, Shanghai BK)
(§2) The standard protocol was used to test the pharmacokinetic characteristics of rodents after intravenous injection and oral administration of the compound. In the experiment, the candidate compound was prepared into a clear solution or a suspension, and administrated to two mice by single intravenous injection and oral administration. The vehicle for intravenous injection was a 5:95 DMSO and 10% hydroxypropyl β-cyclodextrin aqueous solution, and the vehicle for oral administration was a 0.5% w/v methylcellulose and 0.2% w/v tween 80 aqueous solution. Whole blood samples within 24 hours were collected, centrifuged at 3200 g for 10 minutes, and the supernatant was separated to obtain plasma samples. 4-fold volume of acetonitrile solution containing internal standard was added thereto to precipitate protein. The mixture was centrifuged, and the supernatant was taken, and an equal volume of water was added thereto. Then the mixture was centrifuged and the supernatant was taken for injection. The blood drug concentration was quantitatively analyzed by LC-MS/MS analysis method, and pharmacokinetic parameters, such as peak concentration, clearance rate, half-life, area under the drug-time curve and bioavailability, were calculated.

[4] = Pharmacokinetic evaluation in SD rats (intravenous and oral); assay type: in vivo; conditions: male, Sprague-Dawley, plasma, SD rat; for Cmax: read-out: Peak concentration Cmax; for bioavailability: read-out: Bioavailability F; for clearance: read-out: Clearance rate CL; for Vd: read-out: Tissue distribution Vdss; for AUC(0-t): read-out: Area under the drug-time curve AUC0-last PO; for half-life: read-out: Half-life T1/2 (PO) (converted)
Protocol: Test Embodiment 3: Pharmacokinetic Evaluation of Compound in Rats
Experimental objective: to test the pharmacokinetics of the compound in SD rats
Sprague Dawley rat (male, 200-300 g, 7-9 weeks old, Shanghai SLAC)
as §2, with “A standard” for “The standard”, “clear solution,” for “clear solution or a suspension,”, “to rats” for “to two mice”, “hydroxypropyl cyclodextrin” for “hydroxypropyl β-cyclodextrin”, “at 3000” for “at 3200”, “for 15” for “for 10”

[5] = molecular target: T1, S1PR1; assay: In vitro S1PR1 agonistic activity, PathHunter cell line, chemiluminescent detection; assay type: cell-based; conditions: for pEC50: 90-180 min at 37° C.; for Emax: % activity vs maximum control ligand
Protocol: Test Embodiment 1: In Vitro Evaluation of the Agonistic Activity of the Compounds of the Present Disclosure on S1PR1
as §1
I. Cell Treatment • 1. A PathHunter cell line was thawed according to standard procedures; • 2. the cells were inoculated in a 20 μL 384-well microplate and incubated at 37° C. for appropriate time.
II. Agonist • 1. For agonist determination, cells were incubated with samples to be tested to induce a reaction; • 2. a storage solution to be tested was 5-fold diluted into a buffer; • 3. 5 μL of the 5-fold dilution was added to the cells and incubated at 37° C. for 90-180 minutes. The vehicle concentration was 1%.
III. Signal Detection • 1. 12.5 μL or 15 μL of PathHunter detection reagent at a volume ratio of 50% was added at a time, and then incubated at room temperature for 1 hour to generate a detection signal; • 2. the microplate was read with a PerkinElmer Envision™ instrument for chemiluminescent signal detection.
IV. Data Analysis • 1. Activity analysis of the compound was carried out by using CBIS data analysis kit (ChemInnovation, CAA); • 2. calculation formula: % activity=100%×(average test sample RLU−average vehicle RLU)/(average maximum control ligand−average vehicle RLU)

[6] = 5 mg/kg, single oral administration 5 mg/kg
[7] = intravenous injection 1.0 mg/kg (oral 3.0 mg/kg)
[8] = intravenous injection 0.8 mg/kg (oral 2.4 mg/kg)
[9] = 30 mg/kg, single oral administration 30 mg/kg

T1 sequence (P21453 whole entry): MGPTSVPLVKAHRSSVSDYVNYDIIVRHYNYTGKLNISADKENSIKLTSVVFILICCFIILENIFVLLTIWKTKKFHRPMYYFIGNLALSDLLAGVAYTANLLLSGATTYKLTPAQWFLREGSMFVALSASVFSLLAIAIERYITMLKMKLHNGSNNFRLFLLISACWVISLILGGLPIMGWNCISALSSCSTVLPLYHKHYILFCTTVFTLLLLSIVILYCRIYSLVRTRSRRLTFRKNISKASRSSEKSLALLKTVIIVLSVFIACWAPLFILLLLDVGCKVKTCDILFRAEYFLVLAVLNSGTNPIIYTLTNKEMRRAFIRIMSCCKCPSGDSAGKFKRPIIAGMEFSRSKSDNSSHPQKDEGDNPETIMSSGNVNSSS

pEC50 [1]: 7.99
Emax ([1]; read-out: Emax): 99.9%
SMILES: CC(C)Nc1ncc(-c2nc(-c3cccc4c3CCC43CCN(CC4(C(=O)O)CC4)C3)no2)cc1C#N (centres unmarked) [Hydrochloride of compound 33]

pEC50 [1]: 9.49
Emax [1]: nM, 74.0%
AUC(0-t) [2, 6]: 33 µM·h
half-life [2, 6]: 6.7 h
Cmax [2, 6]: 2940 nM
Tmax [2, 6]: 3 h
SMILES: CC(C)Oc1ccc(-c2nc(-c3cccc4c3CCC43CCN(CC4(C(=O)O)CC4)C3)no2)cc1C#N (single isomer, unassigned) [Compound 22B]

pEC50 [1]: 8.22
Emax ([1]; read-out: Emax): 94.9%
SMILES: N#Cc1cc(-c2nc(-c3cccc4c3CCC43CCN(CC4(C(=O)O)CC4)C3)no2)ccc1OC(F)F (centres unmarked) [Hydrochloride of compound 34]

Cmax [3]: 615 ng/mL
bioavailability [3]: 70.1%
clearance [3]: 18.2 mL/min/kg
Vd [3]: 2.17 L/kg
AUC(0-t) [3]: 2.74 µM·h
half-life [3]: 3.61 h
Cmax ([4]; intravenous 1.0 mg/kg, oral 3.0 mg/kg (route of Cmax not stated)): 1140 ng/mL
bioavailability ([4]; intravenous 1.0 mg/kg, oral 3.0 mg/kg): 83.1%
clearance [4, 7]: 5.97 mL/min/kg
Vd [4, 7]: 2.66 L/kg
AUC(0-t) ([4]; oral administration 3.0 mg/kg): 11.5 µM·h
half-life ([4]; oral administration 3.0 mg/kg): 4.91 h
pEC50 [5]: 9.86
Emax [5]: 122%
SMILES: CC(C)Oc1ccc(-c2nc(-c3cccc4c3CCC43CCN(C(=O)CO)C3)no2)cc1C#N (centres unmarked) [Compound 1]

pEC50 [1]: 9.34
Emax ([1]; read-out: Emax): 101%
SMILES: N#Cc1cc(-c2nc(-c3cccc4c3CCC43CCN(CC4(C(=O)O)CC4)C3)no2)ccc1OC1CCCC1 (centres unmarked) [Hydrochloride of compound 31]

Cmax [3]: 869 ng/mL
bioavailability [3]: 62.5%
clearance [3]: 5.2 mL/min/kg
Vd [3]: 1.82 L/kg
AUC(0-t) [3]: 7.88 µM·h
half-life [3]: 3.66 h
Cmax ([4]; intravenous 0.8 mg/kg, oral 2.4 mg/kg (route of Cmax not stated)): 1770 ng/mL
bioavailability ([4]; intravenous 0.8 mg/kg, oral 2.4 mg/kg): 69.5%
clearance [4, 8]: 3.44 mL/min/kg
Vd [4, 8]: 1.6 L/kg
AUC(0-t) ([4]; oral administration 2.4 mg/kg): 16.3 µM·h
half-life ([4]; oral administration 2.4 mg/kg): 4.67 h
pEC50 [5]: 10.12
Emax [5]: 118%
AUC(0-t) [2, 6]: 32.3 µM·h
Cmax [2, 6]: 2400 nM
Tmax [2, 6]: 5 h
AUC(0-t) [2, 9]: 256 µM·h
half-life [2, 9]: 8.24 h
Cmax [2, 9]: 15300 nM
Tmax [2, 9]: 2 h
SMILES: CC(C)Oc1ccc(-c2nc(-c3cccc4c3CCC43CCN(CC4(C(=O)O)CC4)C3)no2)cc1C#N (centres unmarked) [Hydrochloride of compound 22]

pEC50 [1]: 8.84
Emax ([1]; read-out: Emax): 95.9%
SMILES: CC(C)Oc1ncc(-c2nc(-c3cccc4c3CCC43CCN(CC4(C(=O)O)CC4)C3)no2)cc1C#N (centres unmarked) [Hydrochloride of compound 32]

pEC50 [1]: 9.88
Emax ([1]; read-out: Emax): 103%
SMILES: CC(C)Oc1ccc(-c2nc(-c3cccc4c3CCC43CCN(CC4(C(=O)O)CC4)C3)no2)cc1Br (centres unmarked) [Hydrochloride of compound 30]

pEC50 [1]: 10.68
Emax ([1]; read-out: Emax): 91.5%
SMILES: CC(C)Oc1ccc(-c2nc(-c3cccc4c3CCC43CCN(CC4(C(=O)O)CC4)C3)no2)cc1C(F)F (centres unmarked) [Hydrochloride of compound 29]
